Experimental findings from PMC9097638, “Mechanism underlying the carotenoid accumulation in shaded tea leaves” (Food Chemistry: X, 2022) are described below.

One test deals with T1, CsLCYB (Camellia sinensis, UniProt A0A0B4SX47).
T1 construct: gene lcyb; full-length cDNA subcloned into y2 plasmid; expressed in E. coli DH5alpha carrying pAC-LYC; not purified
T1 sequence (A0A0B4SX47 1-504): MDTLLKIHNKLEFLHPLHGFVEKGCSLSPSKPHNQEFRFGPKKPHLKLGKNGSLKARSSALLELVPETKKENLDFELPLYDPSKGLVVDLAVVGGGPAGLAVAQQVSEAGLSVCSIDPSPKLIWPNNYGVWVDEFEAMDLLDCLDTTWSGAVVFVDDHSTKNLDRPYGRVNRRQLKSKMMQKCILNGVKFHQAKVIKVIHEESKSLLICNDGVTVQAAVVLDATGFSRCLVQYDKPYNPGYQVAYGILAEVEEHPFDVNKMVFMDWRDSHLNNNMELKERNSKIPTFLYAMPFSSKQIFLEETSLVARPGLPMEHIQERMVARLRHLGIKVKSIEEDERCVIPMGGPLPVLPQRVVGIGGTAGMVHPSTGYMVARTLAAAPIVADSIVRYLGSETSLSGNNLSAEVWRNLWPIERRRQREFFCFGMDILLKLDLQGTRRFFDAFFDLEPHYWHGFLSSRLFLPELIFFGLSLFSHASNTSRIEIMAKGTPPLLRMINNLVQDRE
Briefly: E. coli pAC-LYC complementation, HPLC of pigments. It counts as cell-based. The note with it: lycopene made in the cells; product beta-carotene; 30 °C, 48 h, darkness.

The target of a further test is T2, CsLCYE (Camellia sinensis, UniProt A0A7J7G232).
T2 construct: gene HYC85_025912; full-length cDNA subcloned into y2 plasmid; expressed in E. coli DH5alpha carrying pAC-LYC; not purified
T2 sequence (A0A7J7G232 1-531 limits assumed): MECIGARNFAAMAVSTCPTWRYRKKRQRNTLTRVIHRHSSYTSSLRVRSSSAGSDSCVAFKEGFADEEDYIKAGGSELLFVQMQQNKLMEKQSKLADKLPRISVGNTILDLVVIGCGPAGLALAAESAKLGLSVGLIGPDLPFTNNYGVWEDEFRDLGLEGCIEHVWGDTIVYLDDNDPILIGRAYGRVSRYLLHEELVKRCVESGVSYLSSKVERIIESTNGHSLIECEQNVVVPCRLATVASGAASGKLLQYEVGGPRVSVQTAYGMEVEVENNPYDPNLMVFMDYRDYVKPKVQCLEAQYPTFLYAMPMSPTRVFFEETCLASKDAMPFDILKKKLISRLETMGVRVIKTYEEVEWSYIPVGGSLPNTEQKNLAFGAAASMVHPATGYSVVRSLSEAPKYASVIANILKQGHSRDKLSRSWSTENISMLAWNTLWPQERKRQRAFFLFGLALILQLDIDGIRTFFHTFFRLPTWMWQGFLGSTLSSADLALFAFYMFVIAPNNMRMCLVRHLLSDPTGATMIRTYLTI
The test is described as follows: E. coli pAC-LYC complementation, HPLC of pigments. It counts as cell-based. The note with it: lycopene made in the cells; product delta-carotene; 30 °C, 48 h, darkness.

Regarding `CC(C)=CCC/C(C)=C/C=C/C(C)=C/C=C/C(C)=C/C=C/C=C(C)/C=C/C=C(C)/C=C/C=C(\C)CCC=C(C)C` [lycopene], the “E. coli pAC-LYC complementation, HPLC of pigments” value on CsLCYB is “CsLCYB was able to convert the lycopene produced by the cells to β-carotene”; at CsLCYE, “monocyclic δ-carotene and lycopene were detected, implying that CsLCYE is a functional lycopene ε-cyclase”.
